Measured values reported in ChEMBL document CHEMBL5608113, “Targeting of CAF-induced therapy resistance in CRC organoid-stroma co-cultures” (2024).

Tested on: Colon cancer organoid
Assay: Targeting of F14 CAF-induced therapy resistance in O14 CRC organoid-stroma co-culture. Cell viability is reported without Gefitinib.
Assay type: functional, Homo sapiens
Settings: Homo sapiens, Concentration 1 uM; read-out: Cell Viability

| Compound | viability at 1 µM [%] |
| --- | --- |
| COc1cccc(CNC(=O)c2nc3scc(COCc4ccc(C(=O)O)cc4)c3c(=O)[nH]2)c1 [T-26c] | 173 |
| O=C(Nc1ccc(Oc2ccc(F)cc2)cc1)N1CCc2ncccc2[C@H]1c1ccc(F)cc1 [BAY-897] | 80 |
| C[C@@H]1CN(c2cc(-c3n[nH]c4ccc(OC5(C)CC5)cc34)ncn2)C[C@H](C)O1 [MLi-2] | 113 |
| CS(=O)(=O)NCC[C@H](NC(=O)c1cncc2c1cnn2-c1ccc(F)cc1)c1ccnc(S(C)(=O)=O)c1 [BI 9307] | 105 |

Same assay, conditions: Homo sapiens, Concentration 10 uM; read-out: Cell Viability

| Compound | viability at 10 µM [%] |
| --- | --- |
| CC(C)(C)OC(=O)N1CCCC1CNC1CCC(c2cc(F)ccc2F)(S(=O)(=O)c2ccc(Cl)cc2)CC1 (stereo not given) [GSI-NC] | 74.5 |
| CO[C@H]1CNC[C@@H](OCC2CCC(F)(F)CC2)[C@@H]1Nc1ncc(-c2cncc(C)c2)c2cc(C)c(=O)[nH]c12 | 78.7 |
| Cc1ccc(NC(=O)Nc2cc(C(F)(F)F)ccc2F)cc1Nc1ccc2c(c1)NC(=O)/C2=C\c1ccc[nH]1 | 121 |
| Cc1cc(-n2nc(Cc3cc(F)cc(C(F)(F)F)c3)nc2C)ccc1C(N)=O [TP-024] | 110 |
| Cc1cc(NC(=O)c2cccc(S(F)(F)(F)(F)F)c2)cc(-n2ccn3nc(-c4cccnc4)cc23)c1 [BAY-309] | 87.3 |

Tested on: Colon cancer organoid
Assay: Targeting of F14 CAF-induced therapy resistance in O14 CRC organoid-stroma co-culture. Cell viability is reported with Gefitinib.
Assay type: functional, Homo sapiens
Settings: Homo sapiens, Concentration 1 uM; read-out: Cell Viability

| Compound | viability at 1 µM [%] |
| --- | --- |
| COc1cccc(CNC(=O)c2nc3scc(COCc4ccc(C(=O)O)cc4)c3c(=O)[nH]2)c1 [T-26c] | 60 |
| O=C(Nc1ccc(Oc2ccc(F)cc2)cc1)N1CCc2ncccc2[C@H]1c1ccc(F)cc1 [BAY-897] | 32.3 |
| C[C@@H]1CN(c2cc(-c3n[nH]c4ccc(OC5(C)CC5)cc34)ncn2)C[C@H](C)O1 [MLi-2] | 27.4 |
| CS(=O)(=O)NCC[C@H](NC(=O)c1cncc2c1cnn2-c1ccc(F)cc1)c1ccnc(S(C)(=O)=O)c1 [BI 9307] | 37.4 |

Same assay, conditions: Homo sapiens, Concentration 10 uM; read-out: Cell Viability

| Compound | viability at 10 µM [%] |
| --- | --- |
| CC(C)(C)OC(=O)N1CCCC1CNC1CCC(c2cc(F)ccc2F)(S(=O)(=O)c2ccc(Cl)cc2)CC1 (stereo not given) [GSI-NC] | 52.1 |
| CO[C@H]1CNC[C@@H](OCC2CCC(F)(F)CC2)[C@@H]1Nc1ncc(-c2cncc(C)c2)c2cc(C)c(=O)[nH]c12 | 65.2 |
| Cc1ccc(NC(=O)Nc2cc(C(F)(F)F)ccc2F)cc1Nc1ccc2c(c1)NC(=O)/C2=C\c1ccc[nH]1 | 40 |
| Cc1cc(-n2nc(Cc3cc(F)cc(C(F)(F)F)c3)nc2C)ccc1C(N)=O [TP-024] | 49.8 |
| Cc1cc(NC(=O)c2cccc(S(F)(F)(F)(F)F)c2)cc(-n2ccn3nc(-c4cccnc4)cc23)c1 [BAY-309] | 49.9 |

Tested on: Colon cancer organoid
Assay: Targeting of F14 CAF-induced therapy resistance in O23 CRC organoid-stroma co-culture. Cell viability is reported without Gefitinib.
Assay type: functional, Homo sapiens
Settings: Homo sapiens, Concentration 1 uM; read-out: Cell Viability

| Compound | viability at 1 µM [%] |
| --- | --- |
| COc1cccc(CNC(=O)c2nc3scc(COCc4ccc(C(=O)O)cc4)c3c(=O)[nH]2)c1 [T-26c] | 98.3 |
| O=C(Nc1ccc(Oc2ccc(F)cc2)cc1)N1CCc2ncccc2[C@H]1c1ccc(F)cc1 [BAY-897] | 111 |
| C[C@@H]1CN(c2cc(-c3n[nH]c4ccc(OC5(C)CC5)cc34)ncn2)C[C@H](C)O1 [MLi-2] | 102 |
| CS(=O)(=O)NCC[C@H](NC(=O)c1cncc2c1cnn2-c1ccc(F)cc1)c1ccnc(S(C)(=O)=O)c1 [BI 9307] | 114 |

Same assay, conditions: Homo sapiens, Concentration 10 uM; read-out: Cell Viability

| Compound | viability at 10 µM [%] |
| --- | --- |
| CC(C)(C)OC(=O)N1CCCC1CNC1CCC(c2cc(F)ccc2F)(S(=O)(=O)c2ccc(Cl)cc2)CC1 (stereo not given) [GSI-NC] | 109 |
| CO[C@H]1CNC[C@@H](OCC2CCC(F)(F)CC2)[C@@H]1Nc1ncc(-c2cncc(C)c2)c2cc(C)c(=O)[nH]c12 | 104 |
| Cc1ccc(NC(=O)Nc2cc(C(F)(F)F)ccc2F)cc1Nc1ccc2c(c1)NC(=O)/C2=C\c1ccc[nH]1 | 117 |
| Cc1cc(-n2nc(Cc3cc(F)cc(C(F)(F)F)c3)nc2C)ccc1C(N)=O [TP-024] | 153 |
| Cc1cc(NC(=O)c2cccc(S(F)(F)(F)(F)F)c2)cc(-n2ccn3nc(-c4cccnc4)cc23)c1 [BAY-309] | 159 |

Tested on: Colon cancer organoid
Assay: Targeting of F14 CAF-induced therapy resistance in O23 CRC organoid-stroma co-culture. Cell viability is reported with Gefitinib.
Assay type: functional, Homo sapiens
Settings: Homo sapiens, Concentration 1 uM; read-out: Cell Viability

| Compound | viability at 1 µM [%] |
| --- | --- |
| COc1cccc(CNC(=O)c2nc3scc(COCc4ccc(C(=O)O)cc4)c3c(=O)[nH]2)c1 [T-26c] | 68.3 |
| O=C(Nc1ccc(Oc2ccc(F)cc2)cc1)N1CCc2ncccc2[C@H]1c1ccc(F)cc1 [BAY-897] | 47.5 |
| C[C@@H]1CN(c2cc(-c3n[nH]c4ccc(OC5(C)CC5)cc34)ncn2)C[C@H](C)O1 [MLi-2] | 41 |
| CS(=O)(=O)NCC[C@H](NC(=O)c1cncc2c1cnn2-c1ccc(F)cc1)c1ccnc(S(C)(=O)=O)c1 [BI 9307] | 116 |

Same assay, conditions: Homo sapiens, Concentration 10 uM; read-out: Cell Viability

| Compound | viability at 10 µM [%] |
| --- | --- |
| CC(C)(C)OC(=O)N1CCCC1CNC1CCC(c2cc(F)ccc2F)(S(=O)(=O)c2ccc(Cl)cc2)CC1 (stereo not given) [GSI-NC] | 42.1 |
| CO[C@H]1CNC[C@@H](OCC2CCC(F)(F)CC2)[C@@H]1Nc1ncc(-c2cncc(C)c2)c2cc(C)c(=O)[nH]c12 | 78.8 |
| Cc1ccc(NC(=O)Nc2cc(C(F)(F)F)ccc2F)cc1Nc1ccc2c(c1)NC(=O)/C2=C\c1ccc[nH]1 | 82.1 |
| Cc1cc(-n2nc(Cc3cc(F)cc(C(F)(F)F)c3)nc2C)ccc1C(N)=O [TP-024] | 79 |
| Cc1cc(NC(=O)c2cccc(S(F)(F)(F)(F)F)c2)cc(-n2ccn3nc(-c4cccnc4)cc23)c1 [BAY-309] | 65 |

Tested on: Colon cancer organoid
Assay: Targeting of F14 CAF-induced therapy resistance in O23 CRC organoid-stroma co-culture. Cell viability is reported with SN-38.
Assay type: functional, Homo sapiens
Settings: Homo sapiens, Concentration 1 uM; read-out: Cell Viability

| Compound | viability at 1 µM [%] |
| --- | --- |
| COc1cccc(CNC(=O)c2nc3scc(COCc4ccc(C(=O)O)cc4)c3c(=O)[nH]2)c1 [T-26c] | 62.7 |
| O=C(Nc1ccc(Oc2ccc(F)cc2)cc1)N1CCc2ncccc2[C@H]1c1ccc(F)cc1 [BAY-897] | 61.9 |
| C[C@@H]1CN(c2cc(-c3n[nH]c4ccc(OC5(C)CC5)cc34)ncn2)C[C@H](C)O1 [MLi-2] | 46.4 |
| CS(=O)(=O)NCC[C@H](NC(=O)c1cncc2c1cnn2-c1ccc(F)cc1)c1ccnc(S(C)(=O)=O)c1 [BI 9307] | 70.6 |

Same assay, conditions: Homo sapiens, Concentration 10 uM; read-out: Cell Viability

| Compound | viability at 10 µM [%] |
| --- | --- |
| CC(C)(C)OC(=O)N1CCCC1CNC1CCC(c2cc(F)ccc2F)(S(=O)(=O)c2ccc(Cl)cc2)CC1 (stereo not given) [GSI-NC] | 78.6 |
| CO[C@H]1CNC[C@@H](OCC2CCC(F)(F)CC2)[C@@H]1Nc1ncc(-c2cncc(C)c2)c2cc(C)c(=O)[nH]c12 | 81.8 |
| Cc1ccc(NC(=O)Nc2cc(C(F)(F)F)ccc2F)cc1Nc1ccc2c(c1)NC(=O)/C2=C\c1ccc[nH]1 | 74.2 |
| Cc1cc(-n2nc(Cc3cc(F)cc(C(F)(F)F)c3)nc2C)ccc1C(N)=O [TP-024] | 81 |
| Cc1cc(NC(=O)c2cccc(S(F)(F)(F)(F)F)c2)cc(-n2ccn3nc(-c4cccnc4)cc23)c1 [BAY-309] | 61.2 |
